Tests used:
[1] = molecular target: T1, UDP-glucose 6-dehydrogenase (HsUGDH) (Homo sapiens, UniProt O60701); assay: spectrophotometric assay, helper enzyme inhibited (no numbers shown); type: biochemical
T1 construct: gene UGDH; recombinant HsUGDH with N-terminal Strep-tag and four-residue linker
T1 sequence (O60701 1-494): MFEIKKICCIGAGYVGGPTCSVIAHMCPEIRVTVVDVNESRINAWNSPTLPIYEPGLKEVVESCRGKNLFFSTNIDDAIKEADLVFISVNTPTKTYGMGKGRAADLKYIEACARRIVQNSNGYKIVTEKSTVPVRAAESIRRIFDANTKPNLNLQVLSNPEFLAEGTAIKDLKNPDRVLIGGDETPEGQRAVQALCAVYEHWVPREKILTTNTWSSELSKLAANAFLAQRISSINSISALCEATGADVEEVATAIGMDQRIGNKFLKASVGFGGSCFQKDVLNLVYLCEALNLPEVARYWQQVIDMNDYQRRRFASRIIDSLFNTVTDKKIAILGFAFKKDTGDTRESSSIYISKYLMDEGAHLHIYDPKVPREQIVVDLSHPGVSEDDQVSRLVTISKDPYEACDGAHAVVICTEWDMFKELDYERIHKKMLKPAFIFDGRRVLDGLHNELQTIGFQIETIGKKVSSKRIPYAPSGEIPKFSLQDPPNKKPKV

[2] = molecular target: T2, UDP-glucose 4-epimerase (EhGalE) (Entamoeba histolytica, UniProt C4M746); assay: RP-HPLC of UDP-Gal to UDP-Glc conversion by purified recombinant enzyme after […] min preincubation; type: biochemical
T2 construct: gene EHI_192050; full-length recombinant EhGalE (XP_650346) with N-terminal Strep-tag and Gly-Gly-Gly-Ser linker
T2 sequence (C4M746 1-341): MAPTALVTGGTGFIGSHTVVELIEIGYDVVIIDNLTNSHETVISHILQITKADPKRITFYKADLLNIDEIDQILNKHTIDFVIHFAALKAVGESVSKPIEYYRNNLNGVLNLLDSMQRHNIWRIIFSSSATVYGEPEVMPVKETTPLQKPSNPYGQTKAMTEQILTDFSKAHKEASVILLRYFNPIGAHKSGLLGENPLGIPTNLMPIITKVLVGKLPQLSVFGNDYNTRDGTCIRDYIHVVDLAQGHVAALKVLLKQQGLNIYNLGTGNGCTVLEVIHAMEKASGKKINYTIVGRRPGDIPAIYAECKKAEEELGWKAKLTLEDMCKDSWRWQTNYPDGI

Row | Structure (SMILES) | spectrophotometric assay, helper enzyme inhibited (no numbers shown) [1] | IC50 [2]
1 | C=C(CC)C(=O)c1ccc(OCC(=O)O)c(Cl)c1Cl [ethacrynic acid] | the helper enzyme UGDH was inhibited by all three compounds | –
2 | CC/C(=C(/CC)c1ccc(O)cc1)c1ccc(O)cc1 [diethylstilbestrol] | the helper enzyme UGDH was inhibited by all three compounds | –
3 | O=c1c2ccccc2[se]n1-c1ccccc1 [ebselen] | the helper enzyme UGDH was inhibited by all three compounds | 2.19 µM

— publication PMC10482301 (PLOS Neglected Tropical Diseases, 2023)
